Source: PubChem BioAssay AID2060885 (Molecular Pharmacology Branch, DTP, NCI, 2025)

System: NCI-H23 complex spheroids with HUVEC/MSC, viability
Test: Anticancer human tumor NCI-H23 cell line growth inhibition [RAS];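 also: spheroids exposed to compound for 7 days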;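 as to viability, T/C: 100% = DMSO vehicle control viability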
Details: for IC50: curve of first compound; for viability, T/C: stronger effect = lower value
Summary of the method: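 Agents were tested in combination matrices in half-log decrements from a top concentration at or near clinical Cmax (10 microM if undetermined). Targets were multi-cell spheroids of tumour lines plus HUVEC and MSC stromal cells.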

[1] = second compound 0.000949 µM, first compound 0.00316 µM
[2] = second compound 0.000949 µM, first compound 0.01 µM
[3] = second compound 0.000949 µM, first compound 0.0316 µM
[4] = second compound 0.000949 µM, first compound 0.1 µM
[5] = second compound 0.003 µM, first compound 0.00316 µM
[6] = second compound 0.003 µM, first compound 0.01 µM
[7] = second compound 0.003 µM, first compound 0.0316 µM
[8] = second compound 0.003 µM, first compound 0.1 µM
[9] = second compound 0.00949 µM, first compound 0.00316 µM
[10] = second compound 0.00949 µM, first compound 0.01 µM
[11] = second compound 0.00949 µM, first compound 0.0316 µM
[12] = second compound 0.00949 µM, first compound 0.1 µM
[13] = second compound 0.03 µM, first compound 0.00316 µM
[14] = second compound 0.03 µM, first compound 0.01 µM
[15] = second compound 0.03 µM, first compound 0.0316 µM
[16] = second compound 0.03 µM, first compound 0.1 µM
[17] = second compound 0.0949 µM, first compound 0.00316 µM
[18] = second compound 0.0949 µM, first compound 0.01 µM
[19] = second compound 0.0949 µM, first compound 0.0316 µM
[20] = second compound 0.0949 µM, first compound 0.1 µM
[21] = second compound 0.3 µM, first compound 0.00316 µM
[22] = second compound 0.3 µM, first compound 0.01 µM
[23] = second compound 0.3 µM, first compound 0.0316 µM
[24] = second compound 0.3 µM, first compound 0.1 µM
[25] = second compound 0.000949 µM, first compound 0.316 µM
[26] = second compound 0.000949 µM, first compound 1 µM
[27] = second compound 0.003 µM, first compound 0.316 µM
[28] = second compound 0.003 µM, first compound 1 µM
[29] = second compound 0.00949 µM, first compound 0.316 µM
[30] = second compound 0.00949 µM, first compound 1 µM
[31] = second compound 0.03 µM, first compound 0.316 µM
[32] = second compound 0.03 µM, first compound 1 µM
[33] = second compound 0.0949 µM, first compound 0.316 µM
[34] = second compound 0.0949 µM, first compound 1 µM
[35] = second compound 0.3 µM, first compound 0.316 µM
[36] = second compound 0.3 µM, first compound 1 µM

## CC(C)n1nc(-c2ccc3oc(N)nc3c2)c2c(N)ncnc21 + CCn1c(-c2cc(N3CCN(C)CC3)cnc2C(C)OC)c2c3cc(ccc31)-c1csc(n1)CC(NC(=O)C1CC1C)C(=O)N1CCCC(N1)C(=O)OCC(C)(C)C2
Second compound 0.000949 µM
  IC50: < 0.316 nM
Second compound 0.003 µM
  IC50: < 0.316 nM
Second compound 0.00949 µM
  IC50: < 0.316 nM
Second compound 0.03 µM
  IC50: < 0.316 nM
Second compound 0.0949 µM
  IC50: < 0.316 nM
Second compound 0.3 µM
  IC50: < 0.316 nM
Second compound 0.000949 µM, first compound 0.000316 µM
  viability, T/C: 44.2%
Second compound 0.000949 µM, first compound 0.001 µM
  viability, T/C: 41.7%
[1]
  viability, T/C: 24.1%
[2]
  viability, T/C: 30%
[3]
  viability, T/C: 24.2%
[4]
  viability, T/C: 13.5%
Second compound 0.003 µM, first compound 0.000316 µM
  viability, T/C: 32.4%
Second compound 0.003 µM, first compound 0.001 µM
  viability, T/C: 24.6%
[5]
  viability, T/C: 25.8%
[6]
  viability, T/C: 21.6%
[7]
  viability, T/C: 19%
[8]
  viability, T/C: 9.18%
Second compound 0.00949 µM, first compound 0.000316 µM
  viability, T/C: 31.2%
Second compound 0.00949 µM, first compound 0.001 µM
  viability, T/C: 26.8%
[9]
  viability, T/C: 24.1%
[10]
  viability, T/C: 20%
[11]
  viability, T/C: 16.4%
[12]
  viability, T/C: 11.4%
Second compound 0.03 µM, first compound 0.000316 µM
  viability, T/C: 24.5%
Second compound 0.03 µM, first compound 0.001 µM
  viability, T/C: 25.2%
[13]
  viability, T/C: 22.7%
[14]
  viability, T/C: 19%
[15]
  viability, T/C: 11.7%
[16]
  viability, T/C: 11.6%
Second compound 0.0949 µM, first compound 0.000316 µM
  viability, T/C: 19.2%
Second compound 0.0949 µM, first compound 0.001 µM
  viability, T/C: 19.4%
[17]
  viability, T/C: 19.2%
[18]
  viability, T/C: 16.6%
[19]
  viability, T/C: 9.51%
[20]
  viability, T/C: 11.2%
Second compound 0.3 µM, first compound 0.000316 µM
  viability, T/C: 17.9%
Second compound 0.3 µM, first compound 0.001 µM
  viability, T/C: 17%
[21]
  viability, T/C: 16.4%
[22]
  viability, T/C: 13.4%
[23]
  viability, T/C: 13.5%
[24]
  viability, T/C: 11.5%

## CCN1CCN(Cc2ccc(Nc3ncc(F)c(-c4cc(F)c5nc(C)n(C(C)C)c5c4)n3)nc2)CC1 + CCn1c(-c2cc(N3CCN(C)CC3)cnc2C(C)OC)c2c3cc(ccc31)-c1csc(n1)CC(NC(=O)C1CC1C)C(=O)N1CCCC(N1)C(=O)OCC(C)(C)C2
Second compound 0.000949 µM
  IC50: < 3.16 nM
Second compound 0.003 µM
  IC50: < 3.16 nM
Second compound 0.00949 µM
  IC50: < 3.16 nM
Second compound 0.03 µM
  IC50: < 3.16 nM
Second compound 0.0949 µM
  IC50: < 3.16 nM
Second compound 0.3 µM
  IC50: < 3.16 nM
[1]
  viability, T/C: 37.3%
[2]
  viability, T/C: 32.9%
[3]
  viability, T/C: 18.3%
[4]
  viability, T/C: 20.1%
[25]
  viability, T/C: 17.9%
[26]
  viability, T/C: 12.9%
[5]
  viability, T/C: 29.6%
[6]
  viability, T/C: 22.1%
[7]
  viability, T/C: 16%
[8]
  viability, T/C: 16.8%
[27]
  viability, T/C: 14.3%
[28]
  viability, T/C: 12.3%
[9]
  viability, T/C: 29%
[10]
  viability, T/C: 21.5%
[11]
  viability, T/C: 17.2%
[12]
  viability, T/C: 16.2%
[29]
  viability, T/C: 12.9%
[30]
  viability, T/C: 10.4%
[13]
  viability, T/C: 23.1%
[14]
  viability, T/C: 17.9%
[15]
  viability, T/C: 18.9%
[16]
  viability, T/C: 14%
[31]
  viability, T/C: 9.41%
[32]
  viability, T/C: 14.5%
[17]
  viability, T/C: 16.1%
[18]
  viability, T/C: 16%
[19]
  viability, T/C: 13.7%
[20]
  viability, T/C: 10.7%
[33]
  viability, T/C: 10.1%
[34]
  viability, T/C: 13.1%
[21]
  viability, T/C: 14.8%
[22]
  viability, T/C: 16.5%
[23]
  viability, T/C: 12.8%
[24]
  viability, T/C: 10.4%
[35]
  viability, T/C: 10.6%
[36]
  viability, T/C: 12.6%

## C[C@@H](NC(=O)c1ncnc(N)c1Cl)c1ncc(C(=O)Nc2cc(C(F)(F)F)c(Cl)cn2)s1 + CCn1c(-c2cc(N3CCN(C)CC3)cnc2C(C)OC)c2c3cc(ccc31)-c1csc(n1)CC(NC(=O)C1CC1C)C(=O)N1CCCC(N1)C(=O)OCC(C)(C)C2
Second compound 0.000949 µM
  IC50: 1530 nM
Second compound 0.003 µM
  IC50: < 31.6 nM
Second compound 0.00949 µM
  IC50: < 31.6 nM
Second compound 0.03 µM
  IC50: < 31.6 nM
Second compound 0.0949 µM
  IC50: < 31.6 nM
Second compound 0.3 µM
  IC50: < 31.6 nM
[3]
  viability, T/C: 51.5%
[4]
  viability, T/C: 54.4%
[25]
  viability, T/C: 46.1%
[26]
  viability, T/C: 48.4%
Second compound 0.000949 µM, first compound 3.16 µM
  viability, T/C: 49.9%
Second compound 0.000949 µM, first compound 10 µM
  viability, T/C: 25%
[7]
  viability, T/C: 39.7%
[8]
  viability, T/C: 33%
[27]
  viability, T/C: 33.9%
[28]
  viability, T/C: 37.2%
Second compound 0.003 µM, first compound 3.16 µM
  viability, T/C: 38.5%
Second compound 0.003 µM, first compound 10 µM
  viability, T/C: 24.6%
[11]
  viability, T/C: 35.3%
[12]
  viability, T/C: 29.5%
[29]
  viability, T/C: 32.5%
[30]
  viability, T/C: 32.8%
Second compound 0.00949 µM, first compound 3.16 µM
  viability, T/C: 31.7%
Second compound 0.00949 µM, first compound 10 µM
  viability, T/C: 27%
[15]
  viability, T/C: 29.4%
[16]
  viability, T/C: 27.8%
[31]
  viability, T/C: 31.3%
[32]
  viability, T/C: 30.7%
Second compound 0.03 µM, first compound 3.16 µM
  viability, T/C: 29.3%
Second compound 0.03 µM, first compound 10 µM
  viability, T/C: 25.2%
[19]
  viability, T/C: 21.1%
[20]
  viability, T/C: 22.3%
[33]
  viability, T/C: 26.3%
[34]
  viability, T/C: 28.4%
Second compound 0.0949 µM, first compound 3.16 µM
  viability, T/C: 21.8%
Second compound 0.0949 µM, first compound 10 µM
  viability, T/C: 24.2%
[23]
  viability, T/C: 22.6%
[24]
  viability, T/C: 24.4%
[35]
  viability, T/C: 24.2%
[36]
  viability, T/C: 22.7%
Second compound 0.3 µM, first compound 3.16 µM
  viability, T/C: 25.4%
Second compound 0.3 µM, first compound 10 µM
  viability, T/C: 21.9%
